Here are results for 86 compounds from PubChem BioAssay AID1249 (Columbia University Molecular Screening Center, 2008).

The source made the active and inactive calls. The rule behind the calls is not given here. A value given as a limit tells only on which side of the number the result lay.

System in the first assay: not listed separately
The experiment in a line: modifiers of cytoskeleton assembly, confirmation, imaging, high-content imaging, retest and dose response (AID 1249).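 For inhibition: plate controls were untreated cells for no effect and reference compound treated cells for full effect.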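 Note: compound exposure lasted 24 h before fixation.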 Particulars: cell-based imaging, cytoskeleton assembly phenotype, high content; at 2 µM; stronger effect = higher value.
As for `CCC(C)C1C(C#N)=C(N)Oc2n[nH]c(-c3ccccc3)c21` (stereo unspecified), the inhibition (usually the change of the read-out against control, counted positive when it falls) is 1.1% (inactive).

Regarding `O=C(N/N=C/c1ccc[nH]1)c1sc2ccccc2c1Cl`, the inhibition was -8.7% (inactive).

Regarding `CCn1c(SCC(=O)N2CCN(c3cccc(Cl)c3)CC2)nc2ccccc2c1=O`, the inhibition is -3.6% (inactive).

For `CCOc1ccc2[nH]c(=O)c(CN(Cc3ccccc3)C(=O)N3CCCC3)cc2c1`, the inhibition is 12.4% (inactive).

On to `C=CCn1c(N2CCCC2)nc2c1c(=O)[nH]c(=O)n2C`, for which the inhibition is -4.9% (inactive).

With `Cc1cccnc1Nc1nc(-c2ccccn2)cs1`, the inhibition was -5.7% (inactive).

On to `Nc1ccc2nc(-c3ccc(N)c(Cl)c3)[nH]c2c1`, for which the inhibition is 11.4% (inactive).

As for `COC(=O)c1sccc1NC(=O)c1ccc(Br)s1`, the inhibition is 1.8% (inactive).

As for `Cc1cccc(OCC(=O)Nc2cc(C)ccc2O)c1`, the inhibition was -8.8% (inactive).

Regarding `CN=C(Nc1cc(C)nn1CCC#N)c1ccccc1F`, the inhibition is -24.5% (inactive).

For `CCCCCCOC(=O)NCC(O)c1ccccc1` (stereo unspecified), the inhibition was 9.1% (inactive).

For the compound `CCCc1cc(=O)[nH]c(SCC(=O)Nc2nonc2N)n1`, the inhibition was 2.7% (inactive).

Consider `CCOC(=O)c1[nH]c(C)c(C(=O)c2ccc(C)cc2)c1C`, for which the inhibition was 10.5% (inactive).

For the compound `O=C(Cc1ccc(-n2cccc2)cc1)NC1CCCCCC1`, the inhibition was -6.9% (inactive).

As for `O=c1ccc(Oc2nc(N3CCOCC3)nc(N3CCOCC3)n2)nn1-c1ccccc1`, the inhibition is 9.9% (inactive).

Consider `CCN(CC)c1ccc(-c2nn3c(-c4n[nH]c5c4CCC5)nnc3s2)cc1`, for which the inhibition was 5.7% (inactive).

Take `O=C(O)c1ccc(CNCc2ccccc2Cl)cc1`: the inhibition is 21.6% (inactive).

Consider `CCN(CC)c1ccc(C2=NNC(=O)CC2C)cc1[N+](=O)[O-]` (stereo unspecified), for which the inhibition was -7.3% (inactive).

With `CCCc1nc(SCC(=O)Nc2nnc(CC)s2)c2c(C)c(C)sc2n1`, the inhibition is 8.7% (inactive).

As to `Cc1ccc(S(=O)(=O)c2cc(C#N)c(=O)[nH]c2N)cc1`, the inhibition was 9.1% (inactive).

Turning to `O=C(COC(=O)c1ccccc1C(=O)c1ccc(Cl)c([N+](=O)[O-])c1)NC1CCCCCC1`, the inhibition was -8.3% (inactive).

On to `CCN(Cc1cc2cc(C)ccc2[nH]c1=O)C(=O)c1cccc(OC)c1`, for which the inhibition was 2.3% (inactive).

In the case of `Cc1cc(C)cc(NC(=O)CC2NCCNC2=O)c1` (stereo unspecified), the inhibition is -1.4% (inactive).

For the compound `Cc1ccc(OCC(=O)N2CCN(C(=O)Cc3ccccc3)CC2)cc1`, the inhibition is -4.3% (inactive).

Turning to `O=C(O)CCC(=O)NC1CCCCCCC1`, the inhibition was 3.8% (inactive).

As for `Cc1noc(C)c1S(=O)(=O)N1CCC2(CC1)OCCO2`, the inhibition is -7.2% (inactive).

With `C[n+]1ccc(/C=C/c2ccc(Br)cc2)cc1`, the inhibition is 7.4% (inactive).

As to `CCCOc1ccc(/C(O)=C2/C(=O)C(=O)N(CCOC)C2c2cccnc2)cc1` (stereo unspecified), the inhibition was -4.5% (inactive).

In the case of `COc1ccc(C)cc1S(=O)(=O)Nc1cccc(SC)c1`, the inhibition is 3.7% (inactive).

On to `CC1CC(=O)NN=C1c1ccc(NCCO)c([N+](=O)[O-])c1` (stereo unspecified), for which the inhibition is -4.6% (inactive).

As for `O=c1c2ccccc2nc(/C=C/c2ccc([N+](=O)[O-])o2)n1CCCO`, the inhibition is -3.1% (inactive).

For `O=C(c1ccc2c(c1)ncn2C1CCCCC1)N1CCC2(CC1)OCCO2`, the inhibition was 3% (inactive).

On to `COc1cc(C(=O)N2CCN(c3cc(Cl)ccc3Cl)CC2)cc(OC)c1OC`, for which the inhibition is -2.9% (inactive).

As to `Cc1ccc(S(=O)(=O)Nc2cc(C(=O)NCCN3CCCC3)ccc2N2CCCCC2)cc1`, the inhibition was -7.7% (inactive).

For `CCOC(=O)Cc1cc(-c2ccc(O)cc2)nc2ccc3ccccc3c12`, the inhibition was -11.7% (inactive).

For the compound `CCN(CC)C(=O)CN(c1ccc(Cl)cc1)S(=O)(=O)c1ccccc1`, the inhibition was 0.4% (inactive).

For `COC(=O)CCC(=O)Nc1cccc(Br)c1`, the inhibition is 4.9% (inactive).

As for `Cc1nnc(SCc2cn3ccsc3n2)n(N)c1=O`, the inhibition is -0.8% (inactive).

In the case of `Nc1nc2c3ccccc3nc(Cc3ccccc3)n2n1`, the inhibition was 3.4% (inactive).

Consider `COc1ccc(N=c2oc3ccc(OC)cc3cc2-c2nc3ccccc3[nH]2)cc1`, for which the inhibition was 4.3% (inactive).

As for `CC(NC(=O)COC(=O)Cc1ccsc1)C1CC2CCC1C2` (stereo unspecified), the inhibition was -7.6% (inactive).

Regarding `Cc1ccc2nc(SCC(=O)Nc3cc(C(F)(F)F)ccc3N3CCOCC3)[nH]c2c1`, the inhibition was -6.4% (inactive).

Take `CCOC(=O)Cn1nnnc1CN(CCc1ccccc1)Cc1cc2cc(CC)ccc2[nH]c1=O`: the inhibition is 1.3% (inactive).

As for `CCCCN(C(=O)NC(=O)Nc1cccc(C)c1C)S(C)(=O)=O`, the inhibition was 1.6% (inactive).

Regarding `C=CCNC(=O)c1c(Cl)cccc1Cl`, the inhibition was -5.1% (inactive).

Consider `COc1ccc2[nH]c(=O)c(CN(Cc3ccc4c(c3)OCO4)C(C)=O)cc2c1`, for which the inhibition is 5.1% (inactive).

Consider `CCCc1[nH]nc2c1C(c1cccnc1)C(C#N)=C(N)O2` (stereo unspecified), for which the inhibition is -4.7% (inactive).

Take `CC1Cc2cc(-c3csc(NC(=O)Cc4cccs4)n3)ccc2N1S(C)(=O)=O` (stereo unspecified): the inhibition was -0.1% (inactive).

`COc1cc(C(=O)N(Cc2ccco2)Cc2cc3ccccc3[nH]c2=O)cc(OC)c1OC`: the inhibition is -1% (inactive).

As for `COc1ccc(CCNc2oc(COc3ccccc3F)nc2C#N)cc1`, the inhibition is 0% (inactive).

Take `O=C(CCS(=O)(=O)c1ccccc1)Nc1nc2c(s1)COc1ccccc1-2`: the inhibition is 6.6% (inactive).

For `O=C(CC(c1ccccc1)c1ccccc1)NCC1CCCO1` (stereo unspecified), the inhibition was -0.2% (inactive).

For `COc1ccc(OC)c2sc(NC(=O)CCS(=O)(=O)c3ccccc3)nc12`, the inhibition was -5.2% (inactive).

In the case of `COc1ccc(Nc2nc(N3CCCC3)nc3ccccc23)c(OC)c1`, the inhibition was -12.3% (inactive).

For the compound `Cc1ccc2nc(CCc3nc4ccc(C)cc4o3)oc2c1`, the inhibition is 5.4% (inactive).

As for `NCCN1CCN(CCN)CC1`, the inhibition was -3% (inactive).

Take `COc1ccc(O)c(C=Nc2cc(C)on2)c1`: the inhibition is -0.2% (inactive).

On to `CSc1ccc(S(=O)(=O)Nc2ccc3c4c(cccc24)CC3)cc1`, for which the inhibition was -10% (inactive).

Turning to `COc1ccc(-n2nnnc2S(=O)(=O)CC(=O)N2CCCCC2)cc1`, the inhibition was 0.7% (inactive).

Regarding `Cc1cccc(OCCN2CSC(=S)N(C)C2)c1`, the inhibition is 2.2% (inactive).

In the case of `Cc1ccc(NS(=O)(=O)c2cc(C(=O)NCCSC3CCCCC3)ccc2C)cc1`, the inhibition was -1.3% (inactive).

On to `CC(Sc1nc(N)cc(=O)[nH]1)C(=O)NC1CCCCC1` (stereo unspecified), for which the inhibition was 9% (inactive).

Consider `Cc1cc(/C=C2\SC(=Nc3ccc(F)cc3)NC2=O)c(C)n1-c1ccc(S(N)(=O)=O)cc1`, for which the inhibition was -17.9% (inactive).

Regarding `CCn1c(SCC(=O)Nc2cc(C)on2)nnc1-c1ccccc1`, the inhibition was 0.6% (inactive).

Take `O=C(Nc1ncc2c(n1)CC(c1ccco1)CC2=O)c1ccc(Cl)cc1` (stereo unspecified): the inhibition is -4.9% (inactive).

On to `COc1ccccc1/C=N/NC(=O)C(NC(=O)c1ccccc1)=C(C)C`, for which the inhibition is 5.8% (inactive).

Take `CN1Cc2cc(C(=O)c3cc(Cl)cc(CSc4ncccn4)c3O)cnc2NC1=O`: the inhibition is 10.6% (inactive).

For `Cc1ccn2c(NC(=O)c3ccco3)c(-c3ccccc3)nc2c1`, the inhibition was 12.5% (inactive).

As to `O=C1OCC(CO)(CO)N=C1NNc1ccccc1Cl`, the inhibition was 19.6% (inactive).

In the case of `Cc1cc(S(=O)(=O)NCCN2CCOCC2)c(C)s1`, the inhibition is 4.3% (inactive).

Regarding `CC(=O)c1cccc(NC(=O)c2cc(-c3ccc(F)cc3)on2)c1`, the inhibition was 0.8% (inactive).

In the case of `Cc1cccc(N(CC(=O)N/N=C/c2ccc(OCC(=O)NCc3ccco3)cc2)S(C)(=O)=O)c1C`, the inhibition was -6.2% (inactive).

Turning to `Cc1c(C(=O)N2CCN(c3ccccc3F)CC2)sc2ncn(CC(=O)N3CCOCC3)c(=O)c12`, the inhibition is -3.2% (inactive).

As to `O=C(CN1CCC(c2nc3ccccc3s2)CC1)NCc1cccs1`, the inhibition was 4% (inactive).

Consider `O=C(CN1CCSCC1)N1CCc2[nH]c3ccc(Br)cc3c2C1`, for which the inhibition is 5.8% (inactive).

As to `COc1cc(/C=N/Nc2snc(SC)c2C#N)ccc1O`, the inhibition is -6.6% (inactive).

Staying with this assay, now noted: cell-based imaging, cytoskeleton assembly phenotype, high content; cell count; at 10 µM; stronger effect = lower value.
The compound `COCCN1C(=O)c2oc3c(C)cc(C)cc3c(=O)c2C1c1cccc(O)c1` (stereo unspecified) yielded a cell count of 86%.

As for `CCOc1cc(CNc2ccc3c(c2)OCCO3)cc(Br)c1OC`, the cell count stood at 37.1%.

For `CCCOc1ccccc1C1CC(=O)Nc2cc3c(cc21)OCCO3` (stereo unspecified), the cell count is 125%.

The compound `CC(C)Oc1ccccc1C1CC(=O)Nc2cc3c(cc21)OCO3` (stereo unspecified) gave a cell count of 113%.

On to `CC1CCC/C=C/C2CC(O)CC2C(O)/C=C/C(=O)O1` (stereo unspecified), for which the cell count was determined as 33.9%.

With `CCCC1=Nc2cc(C(=O)NCCCOCC)ccc2Sc2ccccc21`, the cell count was 37.3%.

For `O=C(O)C1CCCCC1C(=O)Nc1cc(Cl)ccc1Cl` (stereo unspecified), the cell count came to 94.2%.

Take `O=C1C(=O)c2ccc(-c3ccccc3)cc2-c2ccccc21`: the cell count was 111%.

For `COc1ccc(C2=Nn3c(nnc3-c3ccc(OC)cc3)SC2)cc1`, the cell count came out at 91.1%.

For `CCCCN1C(=O)/C(=C/C=C2\N(C)c3ccccc3C2(C)C)SC1=S`, the cell count was 94.3%.

The subject of a further assay is cell-based imaging, cytoskeleton assembly phenotype, high content. The description is as above.
Details: not given
For `COCCN1C(=O)c2oc3c(C)cc(C)cc3c(=O)c2C1c1cccc(O)c1` (stereo unspecified), the IC50 (commonly the concentration at which inhibition is half-maximal) is > 10 µM (inactive).

With `CCOc1cc(CNc2ccc3c(c2)OCCO3)cc(Br)c1OC`, the IC50 was > 10 µM (inactive).

For `CCCOc1ccccc1C1CC(=O)Nc2cc3c(cc21)OCCO3` (stereo unspecified), the IC50 was > 10 µM (inactive).

Take `CC(C)Oc1ccccc1C1CC(=O)Nc2cc3c(cc21)OCO3` (stereo unspecified): the IC50 was > 10 µM (inactive).

Turning to `CC1CCC/C=C/C2CC(O)CC2C(O)/C=C/C(=O)O1` (stereo unspecified), the IC50 was > 10 µM (inactive).

With `CCCC1=Nc2cc(C(=O)NCCCOCC)ccc2Sc2ccccc21`, the IC50 is 0.873 µM.

As to `O=C(O)C1CCCCC1C(=O)Nc1cc(Cl)ccc1Cl` (stereo unspecified), the IC50 was > 10 µM (inactive).

`O=C1C(=O)c2ccc(-c3ccccc3)cc2-c2ccccc21`: the IC50 is > 10 µM (inactive).

For the compound `COc1ccc(C2=Nn3c(nnc3-c3ccc(OC)cc3)SC2)cc1`, the IC50 was > 10 µM (inactive).

With `CCCCN1C(=O)/C(=C/C=C2\N(C)c3ccccc3C2(C)C)SC1=S`, the IC50 was > 10 µM (inactive).
